# Measured values: US20240180880A1, “METHODS OF USING EHMT2 INHIBITORS IN TREATING OR PREVENTING BLOOD DISORDERS” (Epizyme, Inc., priority 2017, published 2024)
# Columns and labels:
# Various cell lines = assay: Cotreatment model (7-day) combination proliferation assay, cellular ATP luminescence, Loewe synergy; assay type: cell-based; conditions: several cell lines, Compound 205 and DNA hypomethylating agents, 7-day cotreatment models (FIG. 1D)
# Method: Cells were incubated for seven days under humidified atmosphere of 5% CO2 at 37° C. The final concentration of DMSO (vehicle) in the assay was 0.1% v/v. Quantification of proliferation through measurement of cellular adenosine triphosphate (ATP) was performed via a luminescent cell viability assay. Plates were read in a plate reader with luminescence module. Quantification of synergy was performed using the Loewe Additivity model and calculating the Loewe Volume (V Loewe) with the Chalice Software (Horizon) and dose response curves and IC50 vs concentration plots were generated with Graphpad Prism software.
# [1] = system: Human CD34+ progenitor cells; assay: Human CD34+ progenitors assay for fetal hemoglobin induction, % HbF+ cells by FACS (healthy donors); assay type: cell-based; conditions: for % HbF+ cells: 26% basal level
# Excerpt: An in-vitro system to test the ability of compound to induce fetal hemoglobin expression was developed. This system used Human CD34+ progenitor cells freshly isolated from healthy donors blood collections. Peripheral blood mononuclear cells (PBMCs) were isolated from whole blood by density gradient centrifugation using SepMatem-50 and Lymphoprep™ from Stem Cell Technologies. CD34^+ hematopoietic progenitor cells (HSPCs) were isolated from PBMCs by magnetic separation using Stem Cells Technologies CD34+ positive selection/isolation kit (Stem Cell Technologies, #18056). CD34 cells were cultured using a 2-phase 14 day culture system. During phase 1 (day 0 to day 7) cells were expanded. Expansion was followed by phase 2 (day 7 to day 14) where cells were differentiated toward the erythroid lineage. Compounds were added on day 1 and day 7 as 1000× stock after being diluted in dimethyl sulfoxide (DMSO) in a 3-fold series. Final DMSO concentration in the assay was 0.1%. At day 14 cells were harvested for Fluorescent Activated Cell Sorting (FACS) analysis and for HbF quantitation by Mass spectrometry. For cell surface and intracellular marker analysis by FACS, cells were fixed and stained with a cocktail of antibodies covering erythroid lineage markers, HbF and H3 and H3K9me2 (Table 11). Data was collected using Canto II flow cytometer (BD Biosciences) and the FACSDiva software. Data was analyzed using FlowJo software. % HbF^+ cells and ratios H3/H3K9me2 intensities were calculated for CD71^+/CD235a^+ gated populations.
# A list of pharmacological agents was evaluated for their potential to induce fetal Hemoglobin (HbF) in order to identify combination partners for our EHMT1/2 inhibitors. HbF can be induced by toxicity; therefore, the potential of the agents to induce HbF were evaluated in the context of cell viability. (Table 12). The EHMT1/2 inhibitor Compound 205 was evaluated in combination with a fixed dose of 10 μM Hydroxyurea and 0.1 μM Pomalidomide. […] 10 μM Hydroxyurea as a single agent was able to induce 01% HbF^+ cells from 26% basal level to 45% while 0.016 μM compound 205 as a single agent induced to 45%. In combination these two agents were able to induced % HbF^+ to 63% (FIG. 3A). […] 0.1 μM Pomalidomide as a single agent was able to induce ° % HbF cells from 26% basal level to 48% while 0.016 μM compound 205 as a single agent induced to 45%. In combination these two agents were able to induce % HbF^+ to 78% (FIG. 3B).
# Hydroxyurea was also evaluated as single agent and in combination with the EHMT1/2 inhibitor compound 205 in a matrix format using CD34^+ cells isolated from a pool of 5 healthy donors. […] (FIG. 4 and FIG. 5, respectively). It is noted that for Loewe excess determination in Chalice, data was normalized to the highest and lowest Hbγ induction observed under the conditions and dose ranges in the assay.
compound,measurement,setting,value
CNc1cc(C)nc(Nc2ccc(OC)c(OCCCN3CCCC3)c2)n1 [Compound 205],combination effect on proliferation (Loewe),Various cell lines,synergy
same,% HbF+ cells,[1]; 0.016 μM compound 205 as a single agent,45%
same,% HbF+ cells,[1]; 0.016 μM compound 205 in combination with 0.1 μM Pomalidomide,78%
same,% HbF+ cells,[1]; 0.016 μM compound 205 in combination with 10 μM Hydroxyurea,63%
same,combination effect on % HbF+ cells (FACS analysis),"[1]; compound 205 with Hydroxyurea, matrix format, CD34+ cells from a pool of 5 healthy donors",synergistically
